According to PMC8367633 (Journal of Applied Glycoscience, 2020):

Target: T1, Blon_0248 (Bifidobacterium longum, UniProt A0ACD7UNL5)
T1 sequence (A0ACD7UNL5 1-449): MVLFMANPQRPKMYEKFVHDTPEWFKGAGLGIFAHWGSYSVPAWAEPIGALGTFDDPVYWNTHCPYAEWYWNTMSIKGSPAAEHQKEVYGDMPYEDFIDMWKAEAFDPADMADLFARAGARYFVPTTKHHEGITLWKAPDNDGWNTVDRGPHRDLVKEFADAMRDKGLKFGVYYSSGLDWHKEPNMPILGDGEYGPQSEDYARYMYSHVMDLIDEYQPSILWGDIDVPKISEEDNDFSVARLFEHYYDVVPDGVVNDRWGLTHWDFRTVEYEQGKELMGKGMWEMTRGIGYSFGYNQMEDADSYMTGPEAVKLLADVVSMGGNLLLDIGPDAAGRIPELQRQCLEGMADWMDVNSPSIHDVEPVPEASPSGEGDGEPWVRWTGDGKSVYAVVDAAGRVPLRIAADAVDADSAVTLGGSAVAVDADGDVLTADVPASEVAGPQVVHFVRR
Experiment: pNP release, absorbance […] nm
Format: biochemical
Conditions: 50 mM sodium acetate pH 6.0, 37 °C

## C[C@@H]1O[C@@H](Oc2ccc([N+](=O)[O-])cc2)[C@@H](O)[C@H](O)[C@@H]1O [pNP-α-Fuc]
  pNP release, absorbance 405 nm: Both proteins specifically hydrolyzed pNP-α-Fuc, but not any of the other pNP-glycosides tested
